Target: T1, Glucose-6-phosphate 1-dehydrogenase (Leuconostoc mesenteroides, UniProt P11411)
T1 sequence (P11411 whole entry): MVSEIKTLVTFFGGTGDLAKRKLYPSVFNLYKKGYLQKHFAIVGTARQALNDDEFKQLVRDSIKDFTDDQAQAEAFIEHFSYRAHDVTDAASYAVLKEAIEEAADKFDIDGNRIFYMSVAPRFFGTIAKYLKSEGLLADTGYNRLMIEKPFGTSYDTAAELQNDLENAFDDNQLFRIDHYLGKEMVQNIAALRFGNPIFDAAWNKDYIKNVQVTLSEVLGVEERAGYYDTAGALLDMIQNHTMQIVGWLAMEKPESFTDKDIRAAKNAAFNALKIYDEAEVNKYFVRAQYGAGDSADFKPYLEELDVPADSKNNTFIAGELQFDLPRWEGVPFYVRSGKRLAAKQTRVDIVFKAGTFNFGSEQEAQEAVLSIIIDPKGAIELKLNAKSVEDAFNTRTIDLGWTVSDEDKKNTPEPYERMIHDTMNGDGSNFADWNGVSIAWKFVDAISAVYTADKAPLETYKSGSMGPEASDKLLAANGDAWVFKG
Experiment: Leuconostoc G6PDH inhibition potency, SAR follow-up, counter-screen for TbHK1 inhibitor project, biochemical, analogue series, IC50 (AID 2579)

Structure (SMILES)	IC50
COc1ccc2c(c1)CN(c1cc(Cl)ccc1C(=O)O)C2=O [4-chloro-2-(6-methoxy-3-oxo-1H-isoindol-2-yl)benzoic acid]	> 25 µM
COc1ccc(C(=O)Nc2cc(Cl)ccc2C(=O)O)cc1OC [4-chloro-2-[(3,4-dimethoxybenzoyl)amino]benzoic acid]	> 25 µM
Cc1ccc(C(=O)Nc2cc(Cl)ccc2C(=O)O)cc1 [4-chloro-2-[(4-methylbenzoyl)amino]benzoic acid]	> 25 µM
COc1cccc(CC(=O)Nc2cc(Cl)ccc2C(=O)O)c1 [4-chloro-2-[[2-(3-methoxyphenyl)-1-oxoethyl]amino]benzoic acid]	> 25 µM
O=C(Nc1cc(Cl)ccc1C(=O)O)c1ccc2ccccc2c1 [4-chloro-2-[[2-naphthalenyl(oxo)methyl]amino]benzoic acid]	> 25 µM
Cc1ccc(C(=O)Nc2cc(Cl)ccc2C(=O)O)c(C)c1 [4-chloro-2-[[(2,4-dimethylphenyl)-oxomethyl]amino]benzoic acid]	> 25 µM
COC(=O)c1ccc(Cl)cc1NC(=O)c1ccccc1OC [4-chloro-2-[[(2-methoxyphenyl)-oxomethyl]amino]benzoic acid methyl ester]	> 25 µM
Cc1cccc(C(=O)Nc2cc(Cl)ccc2C(=O)O)c1 [4-chloro-2-[[(3-methylphenyl)-oxomethyl]amino]benzoic acid]	> 25 µM
CCOc1ccc(C(=O)Nc2cc(Cl)ccc2C(=O)O)cc1 [4-chloro-2-[[(4-ethoxyphenyl)-oxomethyl]amino]benzoic acid]	> 25 µM
CCc1ccc(C(=O)Nc2cc(Cl)ccc2C(=O)OC)cc1 [4-chloro-2-[[(4-ethylphenyl)-oxomethyl]amino]benzoic acid methyl ester]	> 25 µM
O=C(Nc1cc(Cl)ccc1C(=O)O)c1ccncc1 [4-chloro-2-[[oxo(pyridin-4-yl)methyl]amino]benzoic acid]	> 25 µM
O=C1CCN(C(=O)Nc2cc(Cl)ccc2C(=O)O)CC1 [4-chloro-2-[[oxo-(4-oxo-1-piperidinyl)methyl]amino]benzoic acid]	> 25 µM
CC(C)c1ccc(C(=O)Nc2cc(Cl)ccc2C(=O)O)cc1 [4-chloro-2-[[oxo-(4-propan-2-ylphenyl)methyl]amino]benzoic acid]	> 25 µM
COc1ccc(C(=O)Nc2cc(C(=O)O)ccc2Cl)cc1 [4-chloro-3-[(4-methoxybenzoyl)amino]benzoic acid]	> 25 µM
COc1ccc(C(=O)Nc2cc(I)ccc2C(=O)O)cc1 [4-iodanyl-2-[(4-methoxyphenyl)carbonylamino]benzoic acid]	> 25 µM
COc1ccc(C(=O)Nc2ccccc2-c2nn[nH]n2)cc1 [4-methoxy-N-[2-(2H-1,2,3,4-tetrazol-5-yl)phenyl]benzamide]	> 25 µM
O=c1c2cc(F)ccc2sn1-c1ccccc1 [5-fluoranyl-2-phenyl-1,2-benzothiazol-3-one]	> 25 µM
Cc1ccccc1-n1sc2cc(F)ccc2c1=O [6-fluoranyl-2-(2-methylphenyl)-1,2-benzothiazol-3-one]	> 25 µM
O=c1c2ccc(F)cc2sn1Cc1ccccc1 [6-fluoro-2-(phenylmethyl)-1,2-benzothiazol-3-one]	> 25 µM
O=c1c2ccc([N+](=O)[O-])cc2sn1-c1ccccc1 [6-nitro-2-phenyl-1,2-benzothiazol-3-one]	> 25 µM
O=C1c2cccc(Br)c2SCN1c1ccccc1 [8-bromanyl-3-phenyl-2H-1,3-benzothiazin-4-one]	> 25 µM
COc1ccc(NC(=O)Cn2sc3ccccc3c2=O)cc1 [KSC-4-269]	> 25 µM

Structure (SMILES)	IC50
COc1ccc(-n2sc3ccccc3c2=O)cc1 [KSC-6-098]	> 25 µM
CC(=O)Nc1ccc2sn(-c3ccccc3)c(=O)c2c1 [KSC-6-110]	> 25 µM
O=c1c2cc(Br)ccc2sn1-c1ccccc1 [KSC-6-175]	> 25 µM
COc1ccc(NC(=O)c2ccccc2C(=O)O)cc1 [KSC-6-244]	> 25 µM
COc1ccc(C(=O)Nc2cc(Cl)ccc2[N+](=O)[O-])cc1 [KSC-6-266]	> 25 µM
COc1ccc(C(=O)Nc2cc(Cl)ccc2C#N)cc1 [KSC-6-267]	> 25 µM
COc1ccc(C(=O)Nc2cc(F)ccc2C(=O)O)cc1 [KSC-6-276]	> 25 µM
CCc1ccc(C(=O)Nc2cc(Cl)ccc2C(=O)O)cc1 [KSC-6-279]	> 25 µM
OB1OCc2cc(C(F)(F)F)ccc21 [KSC-6-287]	> 25 µM
N#Cc1ccc(Oc2ccc3c(c2)B(O)OC3)cc1 [KSC-6-289]	> 25 µM
O=c1c2cc(C(F)(F)F)ccc2sn1-c1ccccc1 [KSC-09-037]	> 25 µM
COc1ccc2sn(-c3ccccc3)c(=O)c2c1 [KSC-09-048]	> 25 µM
CN(C)c1ccc(NC(=O)Cn2sc3ccccc3c2=O)cc1 [KSC-09-127C]	> 25 µM
CN(C)c1cccc(NC(=O)Cn2sc3ccccc3c2=O)c1 [KSC-09-148-9]	> 25 µM
O=C(Cn1sc2ccccc2c1=O)Nc1ccccc1F [KSC-09-149A]	> 25 µM
CC(C)(C)c1ccc(C(=O)Nc2cc(Cl)ccc2C(=O)O)cc1 [KSC-18-037]	> 25 µM
O=c1c2ccccc2sn1-c1cccc(F)c1 [KUC103653N]	> 25 µM
O=c1s[nH]c2ccccc12 [KUC103850N]	> 25 µM
Cn1sc(=O)c2ccccc21 [KUC103851N]	> 25 µM
COc1ccccc1-n1sc2ccccc2c1=O [KUC103854N]	> 25 µM
O=c1c2cc([N+](=O)[O-])ccc2sn1-c1ccccc1 [KUC103868N]	> 25 µM
Cc1ccccc1N1Cc2ccccc2C1=O [KUC103869N]	> 25 µM

Structure (SMILES)	IC50
COc1ccc(NC(=O)c2ccccc2SCc2ccccc2)cc1 [KUC103881N]	> 25 µM
O=c1c2ccccc2sn1-c1ccc(Cl)cc1Cl [KUC103882N]	> 25 µM
O=C(Cn1sc2ccccc2c1=O)Nc1ccccc1 [KUC104122N]	> 25 µM
CC(=O)Nc1ccc2c(=O)n(-c3ccccc3)sc2c1 [KUC104218N]	> 25 µM
Cc1ccc(NC(=O)Cn2sc3ccccc3c2=O)cc1 [KUC104219N]	> 25 µM
COc1cccc(NC(=O)Cn2sc3ccccc3c2=O)c1 [KUC104220N]	> 25 µM
O=C(Cn1sc2ccccc2c1=O)Nc1cccc(C(F)(F)F)c1 [KUC104221N]	> 25 µM
O=C(Cn1sc2ccccc2c1=O)Nc1cccc(I)c1 [KUC104222N]	> 25 µM
N#Cc1ccc2sn(-c3ccccc3)c(=O)c2c1 [KUC104224N]	> 25 µM
O=c1c2cc(F)c(F)cc2sn1-c1ccccc1 [KUC104549N]	> 25 µM
N#Cc1ccc(NC(=O)Cn2sc3ccccc3c2=O)cc1 [KUC104552N]	> 25 µM
CCOC(=O)Cn1sc2ccccc2c1=O [KUC104555N]	> 25 µM
O=C(Nc1ccccc1)n1sc2ccccc2c1=O [KUC105339N]	> 25 µM
O=C(Cn1sc2ccccc2c1=O)Nc1ccc(C(F)(F)F)cc1 [KUC105341N]	> 25 µM
O=C(c1ccccc1)n1sc2ccccc2c1=O [KUC105344N]	> 25 µM
O=C(Cn1sc2ccccc2c1=O)N1CCOCC1 [KUC105406N]	> 25 µM
COc1ccc2c(=O)n(-c3ccccc3)sc2c1 [KUC105410N]	> 25 µM
O=C(Cn1sc2ccccc2c1=O)Nc1ccccc1C(F)(F)F [KUC105610N]	> 25 µM
COc1ccc(C(=O)Nc2cc(OC)ccc2C(=O)O)cc1 [KUC105624N]	> 25 µM
COc1ccc(NC(=O)Nc2ccccc2C(=O)O)cc1 [KUC105625N]	> 25 µM
COc1ccc(C(=O)Nc2ccc(Cl)cc2C(=O)O)cc1 [KUC105713N]	> 25 µM
COc1ccc(-c2cc3ccccc3[nH]2)cc1 [KUC105790N]	> 25 µM

Structure (SMILES)	IC50
COC(=O)c1ccc(Cl)cc1NC(=O)c1ccc(OC)cc1 [KUC105792N]	> 25 µM
COc1ccc(NC(=O)c2ccc(Cl)cc2C(=O)O)cc1 [KUC105925N]	> 25 µM
O=C(Nc1cc(Cl)ccc1C(=O)O)c1ccsc1 [KUC105926N]	> 25 µM
CC(=O)Nc1cc(Cl)ccc1C(=O)O [KUC105931N]	> 25 µM
O=C(O)c1ccc(Cl)cc1NC(=O)N1CCOCC1 [KUC105933N]	> 25 µM
O=C(Nc1cc(Cl)ccc1C(=O)O)c1cocn1 [KUC105934N]	> 25 µM
COc1ccc(C(=O)Nc2cc(Cl)ccc2-c2nnn[nH]2)cc1 [KUC105991N]	> 25 µM
O=C(Nc1cc(Cl)ccc1C(=O)O)c1ccc(OC(F)(F)F)cc1 [KUC105992N]	> 25 µM
COc1ccc(CC(=O)Nc2cc(Cl)ccc2C(=O)O)cc1 [KUC105993N]	> 25 µM
CN(C)c1ccc(C(=O)Nc2cc(Cl)ccc2C(=O)O)cc1 [KUC105997N]	> 25 µM
CCCCCCCC(=O)Nc1cc(Cl)ccc1C(=O)O [KUC106002N]	> 25 µM
O=C(Nc1cc(Cl)ccc1C(=O)O)c1ccc2c(c1)OCO2 [KUC106004N]	> 25 µM
COc1ccc(C(=O)Nc2ccccc2C(=O)O)cc1 [KUC106458N]	> 25 µM
CC(C)c1cccc(C(=O)Nc2cc(Cl)ccc2C(=O)O)c1 [KUC106459N]	> 25 µM
O=C(O)c1ccc(Cl)cc1NC(=O)C1CCOCC1 [KUC106462N]	> 25 µM
O=C(Nc1cc(Cl)ccc1C(=O)O)c1ccc(-c2cccs2)cc1 [KUC106464N]	> 25 µM
O=C(Nc1cc(Cl)ccc1C(=O)O)c1ccc2c(c1)CCC2 [KUC106492N]	> 25 µM
Cc1ccc(C(=O)Nc2cc(Cl)ccc2C(=O)O)cc1C [KUC106495N]	> 25 µM
O=C(Nc1cc(Cl)ccc1C(=O)O)c1ccc(C2CC2)cc1 [KUC106496N]	> 25 µM
